According to US20130158362A1 (INFACARE PHARMACEUTICAL CORPORATION, priority 2011, published 2013):

Test system: total serum bilirubin (TSB)
Assay: Phase 2b trial: total serum bilirubin (TSB), adjusted and unadjusted, change from baseline
Assay type: in vivo, human
Set-up: total serum bilirubin / total serum bilirubin, Delta (change from baseline) / Change from baseline of total serum bilirubin: unit not given here
Conditions: for total serum bilirubin / total serum bilirubin, Delta (change from baseline): 48 hours, preliminary data; for change from baseline in adjusted TSB, LS mean difference versus placebo, MMRM / change from baseline in adjusted TSB, LS means (SEM), MMRM: observed case
Experimental: Three cohorts of subjects were recruited. This clinical study was designed to evaluate safety and efficacy parameters in each cohort.
Scheduled assessments (including TSB) occurred before treatment and at 0.75 and 2 hours (or 1.5 and 3 hours, depending on PK blood sampling assignment); 6, 12, 24, 48, and 72 hours; and 14 and 30 (except TSB) days after treatment or early termination.
The primary efficacy endpoint was the change in adjusted TSB from baseline to 48 hours after treatment. The adjusted TSB was a calculation of the percentage variance of the TSB level from the age specific threshold for PT initiation per the AAP Guidelines, i.e., an indication of the distance below the PT threshold by time.
The Secondary Efficacy Endpoints were the change from baseline in unadjusted TSB at 48 hours after treatment, change from baseline in adjusted and unadjusted TSB at various other time points after treatment, percent change from baseline in unadjusted TSB, proportion of subjects who require PT/exchange transfusion (ET), time to PT/ET, duration of PT and time to hospital discharge.
Intent-to-treat population (ITT): Defined as all subjects who were randomly assigned treatment in the clinical study, had received IMP, and had at least 1 post baseline TSB measurement during the first 48 hours after treatment. Subjects were summarized based on randomized treatment.
Analysis of Efficacy Parameters: The primary efficacy analysis applied the analysis of covariance (ANCOVA) method to determine if there was a significant difference between treatment groups in change in adjusted TSB levels from baseline to 48 hours post baseline after controlling for the effects of gestational age and adjusted baseline TSB levels. If assumptions of ANCOVA appeared to be violated, a Wilcoxon rank-sum test could be performed instead. Time-to-event variables were analyzed using the Kaplan-Meier method, and Kaplan-Meier survival curves were presented.

[1] = 1.5 mg/kg IM, 6 h, ITT, LOCF, ANCOVA
[2] = 1.5 mg/kg IM, 12 h, ITT, LOCF, ANCOVA
[3] = 1.5 mg/kg IM, 24 h, ITT, LOCF, ANCOVA
[4] = 1.5 mg/kg IM, 48 h/early termination, ITT, LOCF
[5] = 1.5 mg/kg IM, 48 h, ITT, LOCF, ANCOVA
[6] = 1.5 mg/kg IM, 72 h, ITT, LOCF, ANCOVA
[7] = 1.5 mg/kg IM, 14 days/early termination, ITT, LOCF
[8] = 1.5 mg/kg IM, 14 days/early termination, ITT, LOCF, ANCOVA
[9] = 1.5 mg/kg versus the placebo group, 48 Hours/Early termination, PP Population, ANCOVA
[10] = 1.5 mg/kg, 48 Hours/Early termination, PP Population, LOCF
[11] = 1.5 mg/kg, 6 hrs, unadjusted TSB, ITT Population

With “tin IV mesoporphyrin IX dichloride [Stannsoporfin]” the total serum bilirubin (1.5 mg/kg IM (N = 10), treated per protocol) was 10.96 ± 1.8, the “adjusted TSB, Mean (SD)” value (1.5 mg/kg IM, 6 h, ITT, LOCF) was −17.77 (13.326) % and the “change from baseline in adjusted TSB, Mean (SD)” value (1.5 mg/kg IM, 6 h, ITT, LOCF) was 2.47 (7.928) %. For the same substance, the “change from baseline in adjusted TSB, Median” value (1.5 mg/kg IM, 6 h, ITT, LOCF) was 2.80%, the “change from baseline in unadjusted TSB, Mean (SD)” value (1.5 mg/kg IM, 6 h, ITT, LOCF) was 1.50 (0.861) mg/dL and the “change from baseline in unadjusted TSB, Median” value (1.5 mg/kg IM, 6 h, ITT, LOCF) was 1.50 mg/dL. For the same substance, the “unadjusted TSB, Mean (SD)” value (1.5 mg/kg IM, 6 h, ITT, LOCF) was 9.09 (2.175) mg/dL, the “unadjusted TSB, Median” value (1.5 mg/kg IM, 6 h, ITT, LOCF) was 9.60 mg/dL and the “change from baseline in adjusted TSB, LS mean (SEM)” value [1] was 2.72 (2.053) %. For the same substance, the “change from baseline in adjusted TSB, LS mean difference versus placebo” value [1] was −1.67%, the “change from baseline in unadjusted TSB, LS Mean (SEM)” value [1] was 1.38 (0.242) mg/dL and the “change from baseline in unadjusted TSB, LS Mean Difference versus placebo” value [1] was -0.21 mg/dL. For the same substance, the “change from baseline in adjusted TSB, LS mean difference versus placebo, MMRM” value (“change … LS mean difference versus placebo, MMRM” for short) (1.5 mg/kg IM, 6 h, ITT) was −1.44%, the “change from baseline in adjusted TSB, LS means (SEM), MMRM” value (“change from baseline … (SEM), MMRM” for short) (1.5 mg/kg IM, 6 h, ITT) was 2.94 (2.098) % and the “adjusted TSB, Mean (SD)” value (1.5 mg/kg IM, 12 h, ITT, LOCF) was −17.41 (17.294) %. For the same substance, the “change from baseline in adjusted TSB, Mean (SD)” value (1.5 mg/kg IM, 12 h, ITT, LOCF) was 2.83 (12.949) %, the “change from baseline in adjusted TSB, Median” value (1.5 mg/kg IM, 12 h, ITT, LOCF) was 5.70% and the “change from baseline in unadjusted TSB, Mean (SD)” value (1.5 mg/kg IM, 12 h, ITT, LOCF) was 2.22 (1.624) mg/dL. The “change from baseline in unadjusted TSB, Median” value (1.5 mg/kg IM, 12 h, ITT, LOCF) was 2.50 mg/dL, the “unadjusted TSB, Mean (SD)” value (1.5 mg/kg IM, 12 h, ITT, LOCF) was 9.82 (2.599) mg/dL and the “unadjusted TSB, Median” value (1.5 mg/kg IM, 12 h, ITT, LOCF) was 10.20 mg/dL. The “change from baseline in adjusted TSB, LS mean (SEM)” value [2] was 4.54 (3.015) %, the “change from baseline in adjusted TSB, LS mean difference versus placebo” value [2] was −2.59% and the “change from baseline in unadjusted TSB, LS Mean (SEM)” value [2] was 2.21 (0.374) mg/dL. The “change from baseline in unadjusted TSB, LS Mean Difference versus placebo” value [2] was -0.39 mg/dL, the “change … LS mean difference versus placebo, MMRM” value (1.5 mg/kg IM, 12 h, ITT) was −2.67% and the “change from baseline … (SEM), MMRM” value (1.5 mg/kg IM, 12 h, ITT) was 3.29 (2.731) %. The “adjusted TSB, Mean (SD)” value (1.5 mg/kg IM, 24 h, ITT, LOCF) was −24.44 (18.927) %, the “change from baseline in adjusted TSB, Mean (SD)” value (1.5 mg/kg IM, 24 h, ITT, LOCF) was −4.20 (16.064) % and the “change from baseline in adjusted TSB, Median” value (1.5 mg/kg IM, 24 h, ITT, LOCF) was −4.30%. The “change from baseline in unadjusted TSB, Mean (SD)” value (1.5 mg/kg IM, 24 h, ITT, LOCF) was 2.24 (2.084) mg/dL, the “change from baseline in unadjusted TSB, Median” value (1.5 mg/kg IM, 24 h, ITT, LOCF) was 2.70 mg/dL and the “unadjusted TSB, Mean (SD)” value (1.5 mg/kg IM, 24 h, ITT, LOCF) was 9.84 (2.656) mg/dL. For the same substance, the “unadjusted TSB, Median” value (1.5 mg/kg IM, 24 h, ITT, LOCF) was 10.80 mg/dL, the “change from baseline in adjusted TSB, LS mean (SEM)” value [3] was −7.62 (4.320) % and the “change from baseline in adjusted TSB, LS mean difference versus placebo” value [3] was −7.53%. For the same substance, the “change from baseline in unadjusted TSB, LS Mean (SEM)” value [3] was 1.98 (0.549) mg/dL, the “change from baseline in unadjusted TSB, LS Mean Difference versus placebo” value [3] was -0.76 mg/dL and the “change … LS mean difference versus placebo, MMRM” value (1.5 mg/kg IM, 24 h, ITT) was −3.77%. The “change from baseline … (SEM), MMRM” value (1.5 mg/kg IM, 24 h, ITT) was −5.33 (3.948) %, the “adjusted TSB, Mean (SD)” value [4] was −35.09 (19.198) % and the “adjusted TSB, Median” value [4] was −27.10%. For the same substance, the “change from baseline in adjusted TSB, Mean (SD)” value (1.5 mg/kg IM, 48 h, ITT, LOCF) was −14.85 (15.442) %, the “change from baseline in adjusted TSB, Median” value (1.5 mg/kg IM, 48 h, ITT, LOCF) was −12.30% and the “change from baseline in unadjusted TSB, Mean (SD)” value (1.5 mg/kg IM, 48 h, ITT, LOCF) was 2.32 (2.560) mg/dL. For the same substance, the “change from baseline in unadjusted TSB, Median” value (1.5 mg/kg IM, 48 h, ITT, LOCF) was 2.70 mg/dL, the “unadjusted TSB, Mean (SD)” value (1.5 mg/kg IM, 48 h, ITT, LOCF) was 9.91 (3.116) mg/dL and the “unadjusted TSB, Median” value (1.5 mg/kg IM, 48 h, ITT, LOCF) was 10.90 mg/dL. The “change from baseline in adjusted TSB, LS mean (SEM) (primary endpoint)” value [5] was −15.03 (5.273) %, the “change from baseline in adjusted TSB, LS mean difference versus placebo” value [5] was −13.45% and the “change from baseline in unadjusted TSB, LS Mean (SEM)” value [5] was 2.43 (0.842) mg/dL. For the same substance, the “change from baseline in unadjusted TSB, LS Mean Difference versus placebo” value [5] was -1.81 mg/dL, the “change from baseline in adjusted TSB, LS mean (SEM) (primary endpoint)” value (1.5 mg/kg IM, 48 h, ITT, LOCF, ANCOVA, listed as stannsoporfin) was 15.0% and the “change … LS mean difference versus placebo, MMRM” value (1.5 mg/kg IM, 48 h, ITT) was −8.26%. For the same substance, the “change from baseline … (SEM), MMRM” value (1.5 mg/kg IM, 48 h, ITT) was −14.94 (5.019) %, the total serum bilirubin (1.5 mg/kg IM, intent to treat) was 9.91 ± 3.1 and the “total serum bilirubin, Delta (change from baseline)” value (1.5 mg/kg IM, intent to treat) was 2.32 ± 2.5. The “total serum bilirubin, Delta (change from baseline)” value (1.5 mg/kg IM, treated per protocol) was 3.44 ± 1.5, the “adjusted TSB, Mean (SD)” value (1.5 mg/kg IM, 72 h/early termination, ITT, LOCF) was −44.82 (19.254) % and the “change from baseline in adjusted TSB, Mean (SD)” value (1.5 mg/kg IM, 72 h, ITT, LOCF) was −24.58 (15.743) %. The “change from baseline in adjusted TSB, Median” value (1.5 mg/kg IM, 72 h, ITT, LOCF) was −22.10%, the “change from baseline in unadjusted TSB, Mean (SD)” value (1.5 mg/kg IM, 72 h, ITT, LOCF) was 1.76 (2.790) mg/dL and the “change from baseline in unadjusted TSB, Median” value (1.5 mg/kg IM, 72 h, ITT, LOCF) was 2.40 mg/dL. For the same substance, the “unadjusted TSB, Mean (SD)” value (1.5 mg/kg IM, 72 h, ITT, LOCF) was 9.35 (3.409) mg/dL, the “unadjusted TSB, Median” value (1.5 mg/kg IM, 72 h, ITT, LOCF) was 10.60 mg/dL and the “change from baseline in adjusted TSB, LS mean (SEM)” value [6] was −21.94 (6.232) %. For the same substance, the “change from baseline in adjusted TSB, LS mean difference versus placebo” value [6] was −17.19%, the “change from baseline in unadjusted TSB, LS Mean (SEM)” value [6] was 2.43 (1.077) mg/dL and the “change from baseline in unadjusted TSB, LS Mean Difference versus placebo” value [6] was -2.52 mg/dL. The “change from baseline in unadjusted TSB, Mean (SD)” value [7] was −4.08 (2.322) mg/dL, the “change from baseline in unadjusted TSB, Median” value [7] was -4.00 mg/dL and the “unadjusted TSB, Mean (SD)” value [7] was 3.52 (2.751) mg/dL. The “unadjusted TSB, Median” value [7] was 2.80 mg/dL, the “change from baseline in unadjusted TSB, LS Mean (SEM)” value [8] was −4.04 (1.258) mg/dL and the “change from baseline in unadjusted TSB, LS Mean Difference versus placebo” value [8] was -1.74 mg/dL. The “48 Hours/Early termination change from baseline in unadjusted TSB, LS mean difference” value [9] was -0.97 mg/dL, the “P-value of LS mean difference, change from baseline in unadjusted TSB” value [9] was 0.338 and the “48 Hours/Early termination change from baseline in unadjusted TSB, Max” value [10] was 5.2 mg/dL. The “48 Hours/Early termination change from baseline in unadjusted TSB, Mean (SD)” value [10] was 3.44 (1.458) mg/dL, the “48 Hours/Early termination change from baseline in unadjusted TSB, Median” value [10] was 3.40 mg/dL and the “48 Hours/Early termination change from baseline in unadjusted TSB, Min” value [10] was 0.7 mg/dL. The “48 Hours/Early termination unadjusted TSB, Max” value [10] was 12.8 mg/dL, the “48 Hours/Early termination unadjusted TSB, Mean (SD)” value [10] was 10.96 (1.842) mg/dL and the “48 Hours/Early termination unadjusted TSB, Median” value [10] was 11.35 mg/dL. For the same substance, the “48 Hours/Early termination unadjusted TSB, Min” value [10] was 6.8 mg/dL, the “48 Hours/Early termination change from baseline in unadjusted TSB, LS mean (SEM)” value (1.5 mg/kg, 48 Hours/Early termination, PP Population, LOCF, ANCOVA) was 2.96 (0.868) mg/dL and the “6 hrs Percent Change from Baseline in TSB, Max” value [11] was 42.0%. For the same substance, the “6 hrs Percent Change from Baseline in TSB, Mean (SD)” value [11] was 20.13 (12.268) %, the “6 hrs Percent Change from Baseline in TSB, Min” value [11] was −1.7% and the “6 hrs TSB, Max” value [11] was 14.1 mg/dL.
